Source: US20110287059A1, “HONEY ANALYSIS” (COMVITA NEW ZEALAND LIMITED, priority 2008, published 2011)

Assay: Antioxidant activity by ABTS radical assay (Trolox Equivalent Antioxidant Capacity)
Format: biochemical
Conditions: standard
Method: Antioxidant activity was determined by the ABTS assay using a spectrophotometric method for antioxidant activity using the ABTS radical assay (expressed as Trolox Equivalent Antioxidant Capacity) based on the method of Miller & Rice-Evans (Miller, N.J.; Rice-Evans, C.A. 1997: Factors influencing the antioxidant activity determined by the ABTS+radical cation assay. Free Radical Research 26(3): 195-199). All samples were diluted with warm water as required to bring into the appropriate range for the assay.

Compound: COc1ccccc1C(=O)O [2-methoxybenzoic, 2-methoxybenzoic acid]
- Antioxidant Activity by ABTS Assay, Average (80 mg/kg): 51.8 μmole TEAC/100 g

Compound: COc1cc(C(=O)O)cc(OC)c1O [syringic acid]
- Antioxidant Activity by ABTS Assay, Average (760 mg/kg): 499.6 μmole TEAC/100 g

Compound: O=C(O)c1cc(O)c(O)c(O)c1 [gallic acid]
- Antioxidant Activity by ABTS Assay, Average (700 mg/kg): 1695.4 μmole TEAC/100 g

Compound: COC(=O)c1cc(OC)c(O)c(OC)c1 [methylsyringate, methyl syringate]
- Antioxidant Activity by ABTS Assay, Average (290 mg/kg): 85.1 μmole TEAC/100 g
